# Where two headings read alike, the source gives them in different places.
# How the values were obtained:
# [1] = system: MLV vector pMMp-nls-LacZ[VSV-G]; type: cell-based, murine leukemia virus (MLV)
# [2] = system: MLV LTR-driven mRNA transcription (pCMMP-EGFP); type: cell-based, murine leukemia virus (MLV)
# [3] = system: VSV-G pseudotyped HIV-1 vector NL43E-R-Luc; type: cell-based
# [4] = system: MLV vector pMMp-nls-LacZ[VSV-G]; type: cell-based, murine leukemia virus (MLV); remark: listed apart in the source
# [5] = system: resident (pCMMP-SEAP) and newly acquired (MMP-nls-lacZ[VSV-G]) MLV proviruses; type: cell-based, murine leukemia virus (MLV)
# [6] = system: VSV-G pseudotyped MLV vector (MMP-nls-lacZ[VSV-G]); type: cell-based, murine leukemia virus (MLV)
# [7] = system: VSV-G pseudotyped MLV vector (pLEGFP); type: cell-based, murine leukemia virus (MLV)
# [8] = system: aryl sulfotransferases; conditions: cited from earlier work
# [9] = system: HIV; assay: HIV infection with suboptimal (20 mM) chlorate; conditions: FIG. 21B
# [10] = system: HIV; assay: HIV infection in low versus high sulfate media; conditions: FIG. 20B
compound,measurement,setting,value
[O-][Cl+2]([O-])O [chlorate],"fold less susceptible to infection, by reporter gene expression",[1],approximately 9.3 fold
same,"reduction of viral-derived transcript levels, normalized to β-actin",[2],11 fold
same,reduction in HIV LTR-driven reporter gene expression,[3],10 fold
same,additional reduction of MLV infection,[4],2 fold
same,effect on gene expression from newly acquired versus resident proviruses,[5],"affected gene expression from the newly acquired, but not the resident proviruses"
same,influence on β-galactosidase expression from a resident MLV vector,[5],not to influence
same,fold less blue cells as compared to untreated cells,[6],approximately 6.7 fold
same,time of addition that had no effect on viral reporter gene expression,[6],≥ 18 hpi
same,time of addition that led to a reduction in subsequent viral reporter gene expression,[6],up to 16 hpi
same,effect on accumulation of viral reverse transcription products,[7],no effect
Oc1cc(Cl)ccc1Oc1ccc(Cl)cc1Cl [trichlosan],quantities that interfere with aryl sulfotransferases,[8],μM
COc1ccccc1O [guaiacol],"reduction of viral-derived transcript levels, normalized to β-actin","[2]; CHO-K1 cells, 100 mM chlorate, 5 mM guaiacol or both, FIGS. 6D, 6E",17 fold
same,reduction in HIV LTR-driven reporter gene expression,[3],8 fold
same,quantities that interfere with aryl sulfotransferases,[8],mM
same,fold less blue cells as compared to untreated cells,[6],~3.4 fold
Cc1cn([C@H]2C[C@H](N=[N+]=[N-])[C@@H](CO)O2)c(=O)[nH]c1=O [AZT],inhibition of HIV infection in media containing 20 mM chlorate versus standard media,[9],unaffected by 20 mM chlorate
same,inhibition of HIV infection in low sulfate media versus high sulfate media,[10],unaffected by low sulfate conditions
